Measured values published in a compilation of properties of binary mixtures (doi:10.1016/j.molliq.2022.119221).

Assay: xn = mol fraction of the nth substance listed
Conditions: 100 kPa

OCCO + CCCC[n+]1ccn(C)c1.O=S(=O)([N-]S(=O)(=O)C(F)(F)F)C(F)(F)F
viscosity [mPa·s]
Conditions	293.15 K	298.15 K	303.15 K	308.15 K	313.15 K	318.15 K	323.15 K	328.15 K	333.15 K	338.15 K
x2 = 0.1	30.7	24.6	19.2	15.2	12.5	10.4	8.87	7.66	6.65	5.82
x2 = 0.2002	–	–	21.5	17.6	14.8	12.5	10.7	9.27	–	7.1
x2 = 0.2997	37.9	29.2	22.8	–	–	–	–	9.9	8.68	7.64
x2 = 0.4015	–	31.4	24.5	19.7	16.5	14.1	12.1	–	9.16	8.01
x2 = 0.4993	42	32.5	25.1	20.4	17.2	14.7	12.6	10.9	9.57	8.48
x2 = 0.6007	43	33.3	26.2	21.7	17.8	15	13	–	9.8	8.61
x2 = 0.7003	42	33.7	26.3	–	18.4	–	13.4	11.6	10.1	8.93
x2 = 0.7993	42.4	34.6	28.2	23.8	20.2	17.2	–	12.9	–	–
x2 = 0.9	48.7	39.8	32.8	27.3	23.1	19.7	–	–	12.9	11.4
